The source of these data is ChEMBL document CHEMBL1201862, “PubChem BioAssay data set” (2004).

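Compound exposure: 48 hours, 5 concentrations, 96-well plates. GI50 is the concentration that inhibits growth by half.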 Calls of active or inactive are those of the source. Rule as the data show it: active = GI50 up to about 1.1 µM and inactive = higher. Bounds are passed on as bounds.

Some test systems named below: SK-MEL-2; CAKI-1; IGROV-1; MDA-N; M14; K562; BT-549; NCI-H460; OVCAR-5; NCI-H522; CCRF-CEM; KM12; RPMI-8226; 786-0; SF-268; RXF 393; T47D; TK-10; SF-539.
Assay in all cases: NCI tumour cell line growth inhibition, 48 h

Consider `CC(C)=CCc1[nH]c2ccccc2c1C1=C(O)C(=O)C(c2c(CC=C(C)C)[nH]c3ccccc23)=C(O)C1=O`, for which the GI50 was 1.64 µM (inactive) in the test with SK-MEL-2; 1.73 µM (inactive) with CAKI-1; 0.573 µM (active) with IGROV-1; 1.04 µM (active) in the test on MDA-N; 3.24 µM (inactive) in the test on M14; 0.989 µM (active) with K562. Moreover, the GI50 in the test on BT-549 was 0.419 µM (active); with NCI-H460 it was 1.34 µM (inactive); in the test on OVCAR-5, 2.89 µM (inactive); in the test on NCI-H522 it was 2.2 µM (inactive); in the test on CCRF-CEM, 1.03 µM (active); with KM12, 1.04 µM (active). The GI50 was 2.3 µM (inactive) in the test with RPMI-8226; 1.56 µM (inactive) in the test with 786-0; 0.409 µM (active) with SF-268; 1.75 µM (inactive) in the test on RXF 393; 2.76 µM (inactive) in the test on T47D.
With `COc1ccc2c3c1OC1C(=O)C=CC4(CC2)N(C)CCC314` (stereo unspecified), the GI50 in the test on SK-MEL-2 is 16.3 µM (inactive); in the test with CAKI-1, 20.1 µM (inactive); with IGROV-1, 23.7 µM (inactive); with MDA-N, 15.8 µM (inactive); in the test on TK-10 it was 27.3 µM (inactive); in the test with M14 it was 16.6 µM (inactive). For the same compound, the GI50 in the test with K562 is 12.2 µM (inactive); in the test on BT-549, 23.6 µM (inactive); in the test with NCI-H460, 16.6 µM (inactive); in the test with OVCAR-5, 29.5 µM (inactive); with NCI-H522 it was 11 µM (inactive); with CCRF-CEM it was 12.7 µM (inactive). Besides, the GI50 was 14.1 µM (inactive) in the test on KM12; 17 µM (inactive) in the test on RPMI-8226; 17.2 µM (inactive) in the test on 786-0; 19.3 µM (inactive) in the test on SF-268; 25.9 µM (inactive) in the test on RXF 393; 19.4 µM (inactive) in the test on T47D.
Regarding `CCOC(=O)c1[nH]cc(C)c1-c1cccn1-c1ccc(Cl)cc1[N+](=O)[O-]`, the GI50 with SK-MEL-2 is 15.9 µM (inactive); with CAKI-1, 31.7 µM (inactive); in the test with IGROV-1, 14.7 µM (inactive); in the test on MDA-N it was 22.2 µM (inactive); in the test with TK-10, 14.4 µM (inactive); with M14, 14.9 µM (inactive). In addition, the GI50 in the test with K562 is 22.6 µM (inactive); in the test on BT-549 it was 27.2 µM (inactive); with NCI-H460, 18.8 µM (inactive); with OVCAR-5, 23.2 µM (inactive); in the test with NCI-H522, 14 µM (inactive); in the test on CCRF-CEM, 25.6 µM (inactive). Moreover, the GI50 with SF-539 was 19.2 µM (inactive); in the test on KM12, 20.1 µM (inactive); in the test with 786-0 it was 18.2 µM (inactive); with SF-268, 21.1 µM (inactive); in the test with RXF 393, 13.7 µM (inactive); in the test on T47D, 31 µM (inactive).
Regarding `O=C(/C=C/c1ccc(OCc2ccccc2)cc1)NCc1ccc(C(=O)NCCc2c[nH]c3ccccc23)cc1`, the GI50 in the test on SK-MEL-2 was 31 µM (inactive); in the test on CAKI-1 it was 9.18 µM (inactive); in the test with IGROV-1 it was 15.9 µM (inactive); in the test with MDA-N, > 100 µM (inactive); in the test with TK-10, 9.35 µM (inactive); in the test on M14, 27.8 µM (inactive). Also, the GI50 with K562 is 44.4 µM (inactive); with BT-549, 66.1 µM (inactive); in the test on NCI-H460, 15.4 µM (inactive); in the test with OVCAR-5, 18.2 µM (inactive); with CCRF-CEM it was 70.6 µM (inactive); in the test on SF-539 it was 2.67 µM (inactive). For the same compound, the GI50 was 63.8 µM (inactive) with KM12; > 100 µM (inactive) in the test on RPMI-8226; 3.61 µM (inactive) in the test on 786-0; 11.1 µM (inactive) in the test with SF-268; 7.06 µM (inactive) in the test on RXF 393; 30.4 µM (inactive) in the test with T47D.
For `CN1C(=O)[C@@H]2N(CSC2(C)C)C1=S`, the GI50 in the test with SK-MEL-2, in the test on CAKI-1, in the test on IGROV-1, with MDA-N, in the test with TK-10 and in the test with M14 was > 100 µM (inactive) throughout. The GI50 was 69.7 µM (inactive) in the test on K562; > 100 µM (inactive) in the test on BT-549; > 100 µM (inactive) in the test on NCI-H460; > 100 µM (inactive) in the test with OVCAR-5; 29.1 µM (inactive) with NCI-H522; > 100 µM (inactive) with SF-539. For the same compound, the GI50 in the test on KM12, with RPMI-8226, with 786-0, with SF-268, with RXF 393 and with T47D was > 100 µM (inactive) throughout.
Regarding `COc1cccc(Nc2nc(C)c([N+](=O)[O-])c(Nc3cccc(OC)c3)n2)c1`, the GI50 with SK-MEL-2 was 15.9 µM (inactive); in the test with IGROV-1, 14.6 µM (inactive); with MDA-N, 17.9 µM (inactive); in the test on TK-10 it was 16.8 µM (inactive); with M14 it was 10.4 µM (inactive); in the test with K562, 8.65 µM (inactive). Besides, the GI50 in the test with BT-549 was 1.85 µM (inactive); with NCI-H460, 3.95 µM (inactive); with OVCAR-5, > 100 µM (inactive); in the test with NCI-H522 it was 8.18 µM (inactive); in the test with SF-539, 29 µM (inactive); with RPMI-8226, 5.06 µM (inactive). In addition, the GI50 in the test with 786-0 was 51.9 µM (inactive); with SF-268, 40.4 µM (inactive); with RXF 393, 4.86 µM (inactive); in the test on T47D it was 2.05 µM (inactive).
As to `CCOC(=O)c1nc2ccc(C(F)(F)F)cc2nc1NCc1cc(OC)c(OC)c(OC)c1`, the GI50 was 40.8 µM (inactive) in the test with SK-MEL-2; > 100 µM (inactive) in the test with CAKI-1; > 100 µM (inactive) in the test with IGROV-1; 28.4 µM (inactive) in the test with MDA-N; > 100 µM (inactive) with TK-10; > 100 µM (inactive) in the test with M14. Besides, the GI50 in the test with BT-549 was > 100 µM (inactive); with OVCAR-5 it was > 100 µM (inactive); in the test on NCI-H522, 37.1 µM (inactive); with SF-539, 38.6 µM (inactive); in the test with KM12 it was 32.9 µM (inactive); in the test with RPMI-8226, 17.7 µM (inactive). Further, the GI50 is 41.6 µM (inactive) in the test with 786-0, 61.8 µM (inactive) in the test on SF-268, 39.9 µM (inactive) in the test on RXF 393 and 27.6 µM (inactive) with T47D.
Regarding `CCCCCCCC/C=C(\Br)C(O)C(Br)Br` (stereo unspecified), the GI50 is 24.8 µM (inactive) with SK-MEL-2; 19.5 µM (inactive) in the test with CAKI-1; 24.7 µM (inactive) with IGROV-1; 21.8 µM (inactive) in the test with MDA-N; 39.4 µM (inactive) with TK-10; 22.7 µM (inactive) in the test on M14. The GI50 is 69.7 µM (inactive) in the test on K562; 22.4 µM (inactive) in the test with BT-549; 30.4 µM (inactive) in the test on NCI-H460; 19.3 µM (inactive) in the test on OVCAR-5; 19.1 µM (inactive) in the test on NCI-H522; 16.1 µM (inactive) in the test with CCRF-CEM. Also, the GI50 in the test on KM12 was 19.1 µM (inactive); in the test with RPMI-8226, 42.7 µM (inactive); with 786-0, 18.5 µM (inactive); in the test on SF-268 it was 23.2 µM (inactive); in the test on RXF 393 it was 19.3 µM (inactive); in the test with T47D, 31 µM (inactive).
Regarding `COc1ccccc1-c1nc(-c2ccccc2O)n[nH]1`, the GI50 with SK-MEL-2, in the test on CAKI-1, in the test on MDA-N, in the test with TK-10, with M14 and in the test with K562 was > 100 µM (inactive) each time. Besides, the GI50 in the test with BT-549, with NCI-H460, with OVCAR-5, in the test on CCRF-CEM, in the test on SF-539 and in the test on KM12 was > 100 µM (inactive) each time. For the same compound, the GI50 in the test on RPMI-8226 is > 100 µM (inactive); in the test on 786-0, > 100 µM (inactive); with SF-268, > 100 µM (inactive); with RXF 393, > 100 µM (inactive); in the test with T47D, 37.2 µM (inactive).
As for `CC(=O)Oc1c2c(c3n(c1=O)CCCC3)C(=O)N(c1ccccc1)C2=O`, the GI50 in the test with SK-MEL-2 is 45.8 µM (inactive); in the test with CAKI-1, > 100 µM (inactive); with IGROV-1, 78.5 µM (inactive); with MDA-N, 52.8 µM (inactive); with TK-10, 94.6 µM (inactive); in the test with M14 it was > 100 µM (inactive). For the same compound, the GI50 was > 100 µM (inactive) in the test on K562; 38.2 µM (inactive) in the test on BT-549; > 100 µM (inactive) in the test with NCI-H460; > 100 µM (inactive) in the test with OVCAR-5; 61.5 µM (inactive) in the test on NCI-H522; > 100 µM (inactive) in the test with CCRF-CEM. The GI50 in the test with SF-539 is > 100 µM (inactive); in the test on KM12, > 100 µM (inactive); in the test on 786-0, > 100 µM (inactive); in the test on SF-268, > 100 µM (inactive); with RXF 393, > 100 µM (inactive); in the test with T47D, 87.5 µM (inactive).
On to `CN(C)Cc1cc(C(=O)/C=C/c2ccc(Cl)cc2)cc(CN(C)C)c1O`, for which the GI50 is 6.05 µM (inactive) with CAKI-1; 12.5 µM (inactive) with IGROV-1; 10.4 µM (inactive) in the test with MDA-N; 18.4 µM (inactive) in the test on TK-10; 5.41 µM (inactive) with K562; 3.7 µM (inactive) with BT-549. Also, the GI50 was 10.1 µM (inactive) with NCI-H460; 24.2 µM (inactive) in the test with OVCAR-5; 3.24 µM (inactive) in the test on NCI-H522; 14.4 µM (inactive) in the test on CCRF-CEM; 19.3 µM (inactive) in the test on SF-539; 4.17 µM (inactive) in the test with KM12. Besides, the GI50 was 7.89 µM (inactive) in the test on RPMI-8226; 5.93 µM (inactive) in the test with 786-0; 18.2 µM (inactive) in the test with SF-268; 10.9 µM (inactive) with RXF 393; 27 µM (inactive) with T47D.
